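Five compound concentrations were applied to cells in 96-well plates for 48 hours; endpoints were derived by simple linear interpolation of the resulting dose-response curve. The concentration for 50% growth inhibition is given as GI50.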 Calls of active or inactive are those of the source. Rule as the data show it: active = GI50 up to about 1.1 µM and inactive = higher.
Assays:
Assay in all cases: DTP human tumour cell line panel, 48 h
786-0 = tested on: 786-0
A498 = tested on: A498
A549 = tested on: A549
ACHN = tested on: ACHN
BT-549 = tested on: BT-549
CAKI-1 = tested on: CAKI-1
CCRF-CEM = tested on: CCRF-CEM
COLO 205 = tested on: COLO 205
DU-145 = tested on: DU-145
EKVX = tested on: EKVX
HCC 2998 = tested on: HCC 2998
HCT-116 = tested on: HCT-116
HCT-15 = tested on: HCT-15
HL-60 = tested on: HL-60
HOP-62 = tested on: HOP-62
HOP-92 = tested on: HOP-92
HT-29 = tested on: HT-29
Hs-578T = tested on: Hs-578T
IGROV-1 = tested on: IGROV-1
KM12 = tested on: KM12
LOX IMVI = tested on: LOX IMVI
M14 = tested on: M14
MCF7 = tested on: MCF7
MDA-MB-231 = tested on: MDA-MB-231
MDA-MB-435 = tested on: MDA-MB-435
MDA-N = tested on: MDA-N
MOLT-4 = tested on: MOLT-4
Malme-3M = tested on: Malme-3M
NCI-H226 = tested on: NCI-H226
NCI-H23 = tested on: NCI-H23
NCI-H460 = tested on: NCI-H460
NCI-H522 = tested on: NCI-H522
NCI/ADR-RES = tested on: NCI/ADR-RES
OVCAR-3 = tested on: OVCAR-3
OVCAR-4 = tested on: OVCAR-4
OVCAR-5 = tested on: OVCAR-5
OVCAR-8 = tested on: OVCAR-8
PC-3 = tested on: PC-3
RPMI-8226 = tested on: RPMI-8226
RXF 393 = tested on: RXF 393
SF-268 = tested on: SF-268
SF-295 = tested on: SF-295
SF-539 = tested on: SF-539
SK-MEL-28 = tested on: SK-MEL-28
SK-MEL-2 = tested on: SK-MEL-2
SK-MEL-5 = tested on: SK-MEL-5
SK-OV-3 = tested on: SK-OV-3
SN12C = tested on: SN12C
SNB-19 = tested on: SNB-19
SNB-75 = tested on: SNB-75
SR = tested on: SR
SW-620 = tested on: SW-620
T47D = tested on: T47D
TK-10 = tested on: TK-10
U-251 = tested on: U-251
UACC-257 = tested on: UACC-257
UACC-62 = tested on: UACC-62
UO-31 = tested on: UO-31
K562 = tested on: K562

Structure (SMILES): CCCCCCCCCCCCCCCCNc1nc(=O)n(C2OC(C)C(O)C2O)cc1F (stereo not drawn)
- GI50 (786-0): 19.9 µM (inactive)
- GI50 (A498): 19.5 µM (inactive)
- GI50 (A549): 23.1 µM (inactive)
- GI50 (ACHN): 15.5 µM (inactive)
- GI50 (BT-549): 19.7 µM (inactive)
- GI50 (CAKI-1): 21.1 µM (inactive)
- GI50 (CCRF-CEM): 16.3 µM (inactive)
- GI50 (COLO 205): 24.4 µM (inactive)
- GI50 (DU-145): 19.5 µM (inactive)
- GI50 (EKVX): 18.4 µM (inactive)
- GI50 (HCC 2998): 16.9 µM (inactive)
- GI50 (HCT-116): 18.4 µM (inactive)
- GI50 (HCT-15): 14.9 µM
- GI50 (HL-60): 14.5 µM (inactive)
- GI50 (HOP-62): 16.4 µM (inactive)
- GI50 (HOP-92): 22.9 µM (inactive)
- GI50 (HT-29): 17.2 µM (inactive)
- GI50 (Hs-578T): 21.8 µM (inactive)
- GI50 (IGROV-1): 17.6 µM (inactive)
- GI50 (KM12): 17.4 µM (inactive)
- GI50 (LOX IMVI): 24.3 µM (inactive)
- GI50 (M14): 17.2 µM (inactive)
- GI50 (MCF7): 17 µM (inactive)
- GI50 (MDA-MB-231): 20.7 µM (inactive)
- GI50 (MDA-MB-435): 15.5 µM (inactive)
- GI50 (MDA-N): 19.1 µM (inactive)
- GI50 (MOLT-4): 20.2 µM (inactive)
- GI50 (Malme-3M): 23.1 µM (inactive)
- GI50 (NCI-H226): 21 µM (inactive)
- GI50 (NCI-H23): 18 µM (inactive)
- GI50 (NCI-H460): 17 µM (inactive)
- GI50 (NCI-H522): 18.7 µM (inactive)
- GI50 (NCI/ADR-RES): 18.9 µM (inactive)
- GI50 (OVCAR-3): 17.5 µM (inactive)
- GI50 (OVCAR-4): 22.1 µM (inactive)
- GI50 (OVCAR-5): 20.6 µM (inactive)
- GI50 (OVCAR-8): 21.8 µM (inactive)
- GI50 (PC-3): 13.2 µM (inactive)
- GI50 (RPMI-8226): 10.6 µM (inactive)
- GI50 (RXF 393): 20.7 µM (inactive)
- GI50 (SF-268): 20 µM (inactive)
- GI50 (SF-295): 20.8 µM (inactive)
- GI50 (SF-539): 18.2 µM (inactive)
- GI50 (SK-MEL-28): 19.2 µM (inactive)
- GI50 (SK-MEL-2): 18.9 µM (inactive)
- GI50 (SK-MEL-5): 18.5 µM (inactive)
- GI50 (SK-OV-3): 22.9 µM (inactive)
- GI50 (SN12C): 21.9 µM (inactive)
- GI50 (SNB-19): 18.8 µM (inactive)
- GI50 (SNB-75): 18.5 µM (inactive)
- GI50 (SR): 23.9 µM (inactive)
- GI50 (SW-620): 19.9 µM (inactive)
- GI50 (T47D): 21.1 µM (inactive)
- GI50 (TK-10): 16.8 µM (inactive)
- GI50 (U-251): 23.7 µM (inactive)
- GI50 (UACC-257): 20.5 µM (inactive)
- GI50 (UACC-62): 15.6 µM (inactive)
- GI50 (UO-31): 14 µM (inactive)

Structure (SMILES): Fc1cc2nc3n(c2cc1F)C(c1c(Cl)cccc1Cl)SC3 (stereo not drawn)
- GI50 (786-0): 15 µM (inactive)
- GI50 (A498): 20.1 µM (inactive)
- GI50 (A549): 14.9 µM (inactive)
- GI50 (ACHN): 17.5 µM (inactive)
- GI50 (BT-549): 21.8 µM (inactive)
- GI50 (CAKI-1): 14.1 µM (inactive)
- GI50 (COLO 205): 18.7 µM (inactive)
- GI50 (DU-145): 17.5 µM (inactive)
- GI50 (EKVX): 18.4 µM (inactive)
- GI50 (HCC 2998): 15.8 µM (inactive)
- GI50 (HCT-116): 12.6 µM (inactive)
- GI50 (HCT-15): 17.5 µM
- GI50 (HL-60): 15.5 µM (inactive)
- GI50 (HOP-62): 16 µM (inactive)
- GI50 (HOP-92): 13.6 µM (inactive)
- GI50 (HT-29): 16.2 µM (inactive)
- GI50 (Hs-578T): 18.4 µM (inactive)
- GI50 (IGROV-1): 18.5 µM (inactive)
- GI50 (KM12): 13.4 µM (inactive)
- GI50 (LOX IMVI): 16.3 µM (inactive)
- GI50 (M14): 15.7 µM (inactive)
- GI50 (MCF7): 16.5 µM (inactive)
- GI50 (MDA-MB-231): 18.8 µM (inactive)
- GI50 (MDA-MB-435): 15.1 µM (inactive)
- GI50 (MDA-N): 15.7 µM (inactive)
- GI50 (MOLT-4): 24.4 µM (inactive)
- GI50 (Malme-3M): 17.6 µM (inactive)
- GI50 (NCI-H226): 24.7 µM (inactive)
- GI50 (NCI-H23): 16.6 µM (inactive)
- GI50 (NCI-H460): 13.7 µM (inactive)
- GI50 (NCI-H522): 16.9 µM (inactive)
- GI50 (NCI/ADR-RES): 16.1 µM (inactive)
- GI50 (OVCAR-3): 13 µM (inactive)
- GI50 (OVCAR-4): 15.9 µM (inactive)
- GI50 (OVCAR-5): 14.3 µM (inactive)
- GI50 (OVCAR-8): 16 µM (inactive)
- GI50 (PC-3): 16.3 µM (inactive)
- GI50 (RPMI-8226): 11.9 µM (inactive)
- GI50 (RXF 393): 14.9 µM (inactive)
- GI50 (SF-268): 16.5 µM (inactive)
- GI50 (SF-295): 13.4 µM (inactive)
- GI50 (SF-539): 20.5 µM (inactive)
- GI50 (SK-MEL-28): 14 µM (inactive)
- GI50 (SK-MEL-2): 17.1 µM (inactive)
- GI50 (SK-MEL-5): 7.82 µM (inactive)
- GI50 (SK-OV-3): 16.5 µM (inactive)
- GI50 (SN12C): 16.3 µM (inactive)
- GI50 (SNB-19): 14 µM (inactive)
- GI50 (SNB-75): 13.7 µM (inactive)
- GI50 (SR): 4.51 µM (inactive)
- GI50 (SW-620): 18 µM (inactive)
- GI50 (T47D): 14.3 µM (inactive)
- GI50 (TK-10): 18.2 µM (inactive)
- GI50 (U-251): 17.1 µM (inactive)
- GI50 (UACC-257): 13.6 µM (inactive)
- GI50 (UACC-62): 12.6 µM (inactive)
- GI50 (UO-31): 15.8 µM (inactive)

Structure (SMILES): CN(C)CCOc1ccc2[nH]c(C(=O)N3CC(CCl)c4c3cc(NC(=O)OCc3ccc([N+](=O)[O-])cc3)c3ccccc43)cc2c1 (stereo not drawn)
- GI50 (786-0): 0.979 µM (active)
- GI50 (A498): 1.85 µM (inactive)
- GI50 (A549): 1.24 µM (inactive)
- GI50 (ACHN): 0.689 µM (active)
- GI50 (BT-549): 1.85 µM (inactive)
- GI50 (CAKI-1): 1.18 µM (inactive)
- GI50 (CCRF-CEM): 0.162 µM (active)
- GI50 (COLO 205): 1.64 µM (inactive)
- GI50 (DU-145): 0.552 µM (active)
- GI50 (EKVX): 1.73 µM (inactive)
- GI50 (HCC 2998): 8.15 µM (inactive)
- GI50 (HCT-116): 0.794 µM (active)
- GI50 (HCT-15): 1.55 µM
- GI50 (HL-60): 0.269 µM (active)
- GI50 (HOP-62): 1.47 µM (inactive)
- GI50 (HOP-92): 1.5 µM (inactive)
- GI50 (Hs-578T): 2.3 µM (inactive)
- GI50 (IGROV-1): 1.45 µM (inactive)
- GI50 (K562): 0.237 µM (active)
- GI50 (KM12): 1.29 µM (inactive)
- GI50 (LOX IMVI): 1.45 µM (inactive)
- GI50 (M14): 1.63 µM (inactive)
- GI50 (MCF7): 0.211 µM (active)
- GI50 (MDA-MB-231): 2.14 µM (inactive)
- GI50 (MDA-MB-435): 1.6 µM (inactive)
- GI50 (MDA-N): 1.6 µM (inactive)
- GI50 (MOLT-4): 0.538 µM (active)
- GI50 (Malme-3M): 1.47 µM (inactive)
- GI50 (NCI-H226): 1.67 µM (inactive)
- GI50 (NCI-H23): 1.36 µM (inactive)
- GI50 (NCI-H460): 4.05 µM (inactive)
- GI50 (NCI-H522): 1.12 µM (inactive)
- GI50 (NCI/ADR-RES): 1.34 µM (inactive)
- GI50 (OVCAR-3): 1.63 µM (inactive)
- GI50 (OVCAR-4): 1.99 µM (inactive)
- GI50 (OVCAR-5): 1.6 µM (inactive)
- GI50 (OVCAR-8): 0.483 µM (active)
- GI50 (PC-3): 1.46 µM (inactive)
- GI50 (RPMI-8226): 0.493 µM (active)
- GI50 (RXF 393): 1.51 µM (inactive)
- GI50 (SF-268): 1.37 µM (inactive)
- GI50 (SF-295): 1.6 µM (inactive)
- GI50 (SF-539): 1.69 µM (inactive)
- GI50 (SK-MEL-28): 1.64 µM (inactive)
- GI50 (SK-MEL-2): 2.14 µM (inactive)
- GI50 (SK-MEL-5): 1.45 µM (inactive)
- GI50 (SK-OV-3): 1.66 µM (inactive)
- GI50 (SN12C): 1.5 µM (inactive)
- GI50 (SNB-19): 1.71 µM (inactive)
- GI50 (SNB-75): 1.63 µM (inactive)
- GI50 (SR): 0.533 µM (active)
- GI50 (SW-620): 1.19 µM (inactive)
- GI50 (T47D): 1.55 µM (inactive)
- GI50 (TK-10): 14.2 µM (inactive)
- GI50 (U-251): 1.36 µM (inactive)
- GI50 (UACC-257): 14.6 µM (inactive)
- GI50 (UACC-62): 1.83 µM (inactive)
- GI50 (UO-31): 1.28 µM (inactive)

Reference: ChEMBL document CHEMBL1201862, “PubChem BioAssay data set” (2004)
